Consider 8 compounds from PubChem BioAssay AID1341 (NMMLSC, 2008).

In the assay the target is GTPase HRas (Homo sapiens) (UniProt P01112). In words: blockade of GTP loading onto mutant Ras – biochemical, activated mutant, multiplex bead flow cytometry, dose response (AID 1341).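 Also: GST-tagged constitutively activated Ras mutant immobilized on beads and multiplexed with other GTPases; potency for blocking fluorescent GTP binding to Ras so compounds act as competitors.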 The following applies: bead-based flow cytometry, Bodipy-FL-GTP binding. For orientation: A flow cytometer gives signals particle by particle.

“And” between values parts separate entries of the source, which are not always exact repeats. Equal entries are not always repeated.

In general, EC50 refers to the concentration at which the effect is half-maximal. `COc1ccc(C(=O)c2c(O)cc(-c3ccc(OC)cc3)oc2=O)cc1`: the EC50 is 5960 nM. In the case of `N#Cc1c(-c2ccccc2)nc(SCC(=O)Nc2ccccc2)[nH]c1=O`, the EC50 is 1970 nM. The result for `CC(C)Cc1csc(NC(=O)c2ccccc2Cl)c1C(=O)O` reads 634 nM; that for `Cc1ccc(C)c(OCCn2cc(C(=O)O)c3ccccc32)c1`, 195 nM. Turning to `CC(=O)c1c(C)[nH]c(C(=O)N2CCc3ccccc3C2)c1C`, the EC50 was 2460 nM. For the compound `Cc1cc(C(=O)O)sc1CNCc1ccccc1Cl`, the EC50 was 430 nM. Regarding `Cc1cc(NC(=O)CSc2nc(-c3ccccc3)c(C#N)c(=O)[nH]2)no1`, the concentration for a half-maximal effect (EC50) was 11000 nM. The result for `CC1(C)Cc2c(sc(NC(=S)NC(=O)c3ccccc3)c2C(=O)O)CO1` reads 144 nM and 145 nM.
